Results published in patent US20220289732A1, “HETEROCYCLIC WDR5 INHIBITORS AS ANTI-CANCER COMPOUNDS” (NOVARTIS AG, priority 2019, published 2022).
pIC50: −log10 of the molar value.

How the values were obtained:
[1] = molecular target: wild type MLL1 four-member complex (MLL1-4C) (Homo sapiens, UniProt P61964); experiment: MLL1 LC-MS assay (SAH production); type: biochemical; details: read-out: (b) MLL LCMS Peptide Val.v.1 Qualified AC50
In short: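 MLL1-4C (30 nM final) was preincubated 20 min with compound (3-fold dilutions, 8 or 12 points) and SAM in Tris-HCl pH 8.0 buffer. H3K4me0 peptide (histone H3[1-21]-biotin) was then added, giving final 2.5 μM SAM and 10 μM substrate, and reactions ran 120 min at rt. After TFA/d4-SAH quench, SAH was quantified by LC-MS/MS and IC50 fitted from control-normalised activity.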

[2] = test system: MV4-11 cells; experiment: MV4-11 6-day cell growth CTG (CellTiter-Glo) assay; type: cell-based; details: Homo sapiens, MV4-11, 144 h, 6 days, read-out: (c) MLL/WDR5 cell proliferation assay//MLL/WDR5 proliferation MV4:11 Qualified AC50
In short: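 Exponentially growing MV4-11 AML cells (RPMI 1640, 10% FBS) seeded at 300 cells/well with 12-point 1:3 compound dilutions, top final concentration 50 μM. Viability read by CellTiter-Glo luminescence after 6 days at 37° C; % inhibition vs DMSO-only wells fitted to dose-response for IC50.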

[3] = molecular target: WDR5 (Homo sapiens, UniProt P61964); experiment: WDR5 HTRF binding assay; details: read-out: (a) WDR5 HTRF Pep Val v.1[Inhibitor/IC50]Qualified AC50
In short: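 6 nM WDR5 and 20 nM biotin-MLL1 WIN peptide (3762-3773) were incubated with compound (12-point, 3-fold dilutions) in pH 7.5 Hepes/NaCl/DTT buffer for 20 min at rt. Streptavidin-APC plus anti-His-Eu were then added for 1 hr, with HTRF read at 665/615. IC50 was fit from control-normalized activity; the counter assay used 15 nM biotin-PEG-His peptide.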

SMILES | AC50 [1] [nM] | AC50 [2] [nM] | pIC50 [3]
CCOc1cc([C@H](C)N2CCc3c(cc(CCN(C)CC)cc3-c3ccc(N)nc3C)C2=O)ncc1C#N [Example 122, (S)-6-(1-(5-(6-amino-2-methylpyridin-3-yl)-7-(2-(ethyl(methyl)amino)ethyl)-1-oxo-3,4-dihydroisoquinolin-2(1H)-yl)ethyl)-4-ethoxynicotinonitrile] | 10 to 1000 | 10 to 1000 | > 8.00
CCN(C)CCc1cc2c(c(-c3cn(C)nc3C)c1)CCN([C@@H](C)c1cnc(F)c(OC)c1)C2=O [Example 123, (S)-5-(1,3-dimethyl-1H-pyrazol-4-yl)-7-(2-(ethyl(methyl)amino)ethyl)-2-(1-(6-fluoro-5-methoxypyridin-3-yl)ethyl)-3,4-dihydroisoquinolin-1(2H)-one] | 10 to 1000 | 10 to 1000 | > 8.00
CCOc1cc([C@H](C)N2CCc3c(cc(CCN(C)CC)cc3-c3cc(CO)cnc3Cl)C2=O)ncc1C#N [Example 124, (S)-6-(1-(5-(2-chloro-5-(hydroxymethyl)pyridin-3-yl)-7-(2-(ethyl(methyl)amino)ethyl)-1-oxo-3,4-dihydroisoquinolin-2(1H)-yl)ethyl)-4-ethoxynicotinonitrile] | 10 to 1000 | 10 to 1000 | > 8.00
CCOc1cc([C@H](C)N2CCc3c(cc(CCN(C)CC)cc3-c3cn(C)c(=O)c(C)c3C)C2=O)ncc1C#N [Example 125, (S)-4-ethoxy-6-(1-(7-(2-(ethyl(methyl)amino)ethyl)-1-oxo-5-(1,4,5-trimethyl-6-oxo-1,6-dihydropyridin-3-yl)-3,4-dihydroisoquinolin-2(1H)-yl)ethyl)nicotinonitrile] | 10 to 1000 | 10 to 1000 | > 8.00
CCOc1cc([C@H](C)N2CCc3c(cc(CCN(C)CC)cc3-c3cn(C)nc3C(F)F)C2=O)ncc1C#N [Example 126, (S)-6-(1-(5-(3-(difluoromethyl)-1-methyl-1H-pyrazol-4-yl)-7-(2-(ethyl(methyl)amino)ethyl)-1-oxo-3,4-dihydroisoquinolin-2(1H)-yl)ethyl)-4-ethoxynicotinonitrile] | 10 to 1000 | 10 to 1000 | > 8.00
CCOc1cc([C@H](C)N2CCc3c(cc(CCN(C)CC)cc3-c3cn(CC)nc3C)C2=O)ncc1C#N [Example 127, (S)-4-ethoxy-6-(1-(7-(2-(ethyl(methyl)amino)ethyl)-5-(1-ethyl-3-methyl-1H-pyrazol-4-yl)-1-oxo-3,4-dihydroisoquinolin-2(1H)-yl)ethyl)nicotinonitrile] | 10 to 1000 | 10 to 1000 | > 8.00
CCOc1cc([C@H](C)N2CCc3c(cc(CCN(C)CC)cc3-c3cc(C)cnc3C(F)F)C2=O)ncc1C#N [Example 128, (S)-6-(1-(5-(2-(difluoromethyl)-5-methylpyridin-3-yl)-7-(2-(ethyl(methyl)amino)ethyl)-1-oxo-3,4-dihydroisoquinolin-2(1H)-yl)ethyl)-4-ethoxynicotinonitrile] | 10 to 1000 | 10 to 1000 | > 8.00
CCOc1cc(CN2CCc3c(cc(CCN(C)CC)cc3-c3cn(C)nc3C)C2=O)ncc1C#N [Example 129, 6-((5-(1,3-dimethyl-1H-pyrazol-4-yl)-7-(2-(ethyl(methyl)amino)ethyl)-1-oxo-3,4-dihydroisoquinolin-2(1H)-yl)methyl)-4-ethoxynicotinonitrile] | 10 to 1000 | 10 to 1000 | > 8.00
CCOc1cc(CN2CCc3c(cc(CCN(C)CC)cc3-c3ccc(F)nc3C)C2=O)ncc1C#N [Example 130, 4-ethoxy-6-((7-(2-(ethyl(methyl)amino)ethyl)-5-(6-fluoro-2-methylpyridin-3-yl)-1-oxo-3,4-dihydroisoquinolin-2(1H)-yl)methyl)nicotinonitrile] | 10 to 1000 | 10 to 1000 | > 8.00
CCOc1cc([C@H](C)N2CCc3c(cc(CCN(C)CC)cc3-c3cn(C)c(=O)cc3C)C2=O)ncc1C#N [Example 131, (S)-6-(1-(5-(1,4-dimethyl-6-oxo-1,6-dihydropyridin-3-yl)-7-(2-(ethyl(methyl)amino)ethyl)-1-oxo-3,4-dihydroisoquinolin-2(1H)-yl)ethyl)-4 ethoxynicotinonitrile] | 10 to 1000 | 10 to 1000 | > 8.00
CCOc1cc(CN2CCc3c(cc(CCN(C)CC)cc3-c3ccc(F)nc3C)C2=O)ncc1F [Example 132, 2-((4-ethoxy-5-fluoropyridin-2-yl)methyl)-7-(2-(ethyl(methyl)amino)ethyl)-5-(6-fluoro-2-methylpyridin-3-yl)-3,4-dihydroisoquinolin-1(2H)-one] | 10 to 1000 | 10 to 1000 | > 8.00
CCOc1cc(CN2CCc3c(cc(CCN(C)CC)cc3-c3cc(C)ncc3Cl)C2=O)ncc1C#N [Example 133, 6-((5-(5-chloro-2-methylpyridin-4-yl)-7-(2-(ethyl(methyl)amino)ethyl)-1-oxo-3,4-dihydroisoquinolin-2(1H)-yl)methyl)-4-ethoxynicotinonitrile] | 10 to 1000 | 10 to 1000 | > 8.00
CCOc1cc([C@H](C)N2CCc3c(cc(CCN(C)CC)cc3-c3cn(C)nc3C)C2=O)ncc1C#N [Example 134, (S)-6-(1-(5-(1,3-dimethyl-1H-pyrazol-4-yl)-7-(2-(ethyl(methyl)amino)ethyl)-1-oxo-3,4-dihydroisoquinolin-2(1H)-yl)ethyl)-4-ethoxynicotinonitrile] | 10 to 1000 | 10 to 1000 | > 8.00
CCOc1cc(CN2CCc3c(cc(CCN(C)CC)cc3-c3cn(C)c(=O)cc3C)C2=O)ncc1C#N [Example 135, 6-((5-(1,4-dimethyl-6-oxo-1,6-dihydropyridin-3-yl)-7-(2-(ethyl(methyl)amino)ethyl)-1-oxo-3,4-dihydroisoquinolin-2(1H)-yl)methyl)-4-ethoxynicotinonitrile] | 10 to 1000 | 10 to 1000 | > 8.00
CCOc1cc(C(C)N2CCc3c(cc(CCN(C)CC)cc3-c3cc(OC)ncc3Cl)C2=O)ncc1C#N (stereo not drawn) [Example 136, 6-(1-(5-(5-chloro-2-methoxypyridin-4-yl)-7-(2-(ethyl(methyl)amino)ethyl)-1-oxo-3,4-dihydroisoquinolin-2(1H)-yl)ethyl)-4-ethoxynicotinonitrile] | 10 to 1000 | 10 to 1000 | > 8.00
CCN(C)CCc1cc2c(c(-c3ccc(F)nc3C)c1)CCN(Cc1cnc(F)c(OC)c1)C2=O [Example 137, 7-(2-(ethyl(methyl)amino)ethyl)-5-(6-fluoro-2-methylpyridin-3-yl)-2-((6-fluoro-5-methoxypyridin-3-yl)methyl)-3,4-dihydroisoquinolin-1(2H)-one] | 10 to 1000 | 10 to 1000 | > 8.00
CCOc1cc([C@H](C)N2CCc3c(cc(CCN(C)CC)cc3-c3cc(N)cnc3C(F)(F)F)C2=O)ncc1C#N [Example 138, (S)-6-(1-(5-(5-amino-2-(trifluoromethyl)pyridin-3-yl)-7-(2-(ethyl(methyl)amino)ethyl)-1-oxo-3,4-dihydroisoquinolin-2(1H)-yl)ethyl)-4-ethoxynicotinonitrile] | 10 to 1000 | 10 to 1000 | > 8.00
CCOc1cc([C@H](C)N2CCc3c(cc(CCN(C)CC)cc3-c3cccnc3C)C2=O)ncc1C#N [Example 139, (S)-4-ethoxy-6-(1-(7-(2-(ethyl(methyl)amino)ethyl)-5-(2-methylpyridin-3-yl)-1-oxo-3,4-dihydroisoquinolin-2(1H)-yl)ethyl)nicotinonitrile] | 10 to 1000 | 10 to 1000 | > 8.00
CCOc1cc(CN2CCc3c(cc(CCN(C)CC)cc3-c3cc(C)cnc3C)C2=O)ncc1C#N [Example 140, 6-((5-(2,5-dimethylpyridin-3-yl)-7-(2-(ethyl(methyl)amino)ethyl)-1-oxo-3,4-dihydroisoquinolin-2(1H)-yl)methyl)-4-ethoxynicotinonitrile] | 10 to 1000 | 10 to 1000 | > 8.00
CCOc1cc(C(C)N2CCc3c(cc(CCN(C)CC)cc3-c3ccnc(F)c3C)C2=O)ncc1C#N (stereo not drawn) [Example 141, 4-ethoxy-6-(1-(7-(2-(ethyl(methyl)amino)ethyl)-5-(2-fluoro-3-methylpyridin-4-yl)-1-oxo-3,4-dihydroisoquinolin-2(1H)-yl)ethyl)nicotinonitrile] | 10 to 1000 | 10 to 1000 | 6.00 to 8.00
CCOc1cc([C@H](C)N2CCc3c(cc(CCN(C)CC)cc3-c3cc(C)ncc3F)C2=O)ncc1C#N [Example 142, (S)-4-ethoxy-6-(1-(7-(2-(ethyl(methyl)amino)ethyl)-5-(5-fluoro-2-methylpyridin-4-yl)-1-oxo-3,4-dihydroisoquinolin-2(1H)-yl)ethyl)nicotinonitrile] | 10 to 1000 | 10 to 1000 | 6.00 to 8.00
CCOc1cc(C(C)N2CCc3c(cc(CCN(C)CC)cc3-c3cc(F)ncc3C)C2=O)ncc1C#N (stereo not drawn) [Example 143, 4-ethoxy-6-(1-(7-(2-(ethyl(methyl)amino)ethyl)-5-(2-fluoro-5-methylpyridin-4-yl)-1-oxo-3,4-dihydroisoquinolin-2(1H)-yl)ethyl)nicotinonitrile] | 10 to 1000 | 10 to 1000 | 6.00 to 8.00
